Results as given in US12209102B2, “Heterocyclic compounds and uses thereof” (Kumquat Biosciences Inc., priority 2022, dated 2025).

Columns and labels:
K-Ras G12D = target: T1, K-Ras G12D (Homo sapiens, UniProt P01116, G12D); test: HTRF resonance energy transfer assay, K-Ras G12D / SOS1 interaction; type: biochemical; settings: HTRF assay of Example 5; read-out: IC50 against K-Ras G12D
T1 construct: made in house; host or cells: E. coli BL21 (DE3)
Method in brief: (§1)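 Read-out: HTRF 665/620 nm ratio (excitation 337 nm) after roughly 10 min or longer incubation, used to derive IC50. Donor anti-GST-Eu on GST-K-Ras; acceptor anti-6His-XL665 on His-hSOS1. Duplicate dose series from 10 μM down to 0.01 μM.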

K-Ras G12S = target: T2, K-Ras G12S (Homo sapiens, UniProt P01116, G12S); test: HTRF resonance energy transfer assay, K-Ras G12S / SOS1 interaction; type: biochemical; settings: HTRF assay of Example 5; read-out: IC50 against K-Ras G12S
T2 construct: made in house; host or cells: E. coli BL21 (DE3)
Method in brief: as §1

K-Ras G12V = target: T3, K-Ras G12V (Homo sapiens, UniProt P01116, G12V); test: HTRF resonance energy transfer assay, K-Ras G12V / SOS1 interaction; type: biochemical; settings: HTRF assay of Example 5; read-out: IC50 against K-Ras G12V
T3 construct: made in house; host or cells: E. coli BL21 (DE3)
Method in brief: as §1

K-Ras WT = target: T4, K-Ras WT (Homo sapiens, UniProt P01116); test: HTRF resonance energy transfer assay, K-Ras WT / SOS1 interaction; type: biochemical; settings: HTRF assay of Example 5; read-out: IC50 against K-Ras WT
T4 construct: made in house; host or cells: E. coli BL21 (DE3)
Method in brief: as §1

GP2D cells = test: Ras cellular assay, growth of cells with K-Ras G12D mutation (CellTiter-Glo); type: cell-based; settings: cell growth, Example 9, G12D mutation, read-out: IC50 against GP2D cells
A549 cells = test: Ras cellular assay, growth of cells with K-Ras G12S mutation (CellTiter-Glo); type: cell-based; settings: Homo sapiens, cell growth, Example 9, G12S mutation, read-out: IC50 against A549 cells
Method in brief: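 A549 cells (K-Ras G12S) in RPMI-1640 with 10% heat-inactivated FBS, seeded e.g. 800 per well in standard or ultra-low-attachment 384-well plates, treated next day with a dilution series (e.g. 10-point, 3-fold). Viability by CellTiter-Glo luminescence about 6 days later; IC50 from four-parameter fit.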

SW620 cells = test: Ras cellular assay, growth of cells with K-Ras G12V mutation (CellTiter-Glo); type: cell-based; settings: Homo sapiens, SW-620; cell growth, Example 9, G12V mutation; read-out: IC50 against SW620 cells
Method in brief: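 SW620 (K-Ras G12V) cells, e.g. 800/well in RPMI-1640 with 10% heat-inactivated FBS on standard or ultra-low attachment plates, were dosed the day after plating with e.g. a 10-point 3-fold series. Viability by CellTiter-Glo luminescence about 6 days later; IC50 from four-parameter fit.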

T4 sequence (P01116 1-188 isoform P01116-2): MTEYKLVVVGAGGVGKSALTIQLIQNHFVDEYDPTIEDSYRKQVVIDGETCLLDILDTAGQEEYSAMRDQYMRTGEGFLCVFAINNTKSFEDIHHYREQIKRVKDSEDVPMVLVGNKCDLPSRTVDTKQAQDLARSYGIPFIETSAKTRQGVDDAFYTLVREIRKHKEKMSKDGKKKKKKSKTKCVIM
T3 sequence (P01116 1-188 isoform P01116-2 G12V): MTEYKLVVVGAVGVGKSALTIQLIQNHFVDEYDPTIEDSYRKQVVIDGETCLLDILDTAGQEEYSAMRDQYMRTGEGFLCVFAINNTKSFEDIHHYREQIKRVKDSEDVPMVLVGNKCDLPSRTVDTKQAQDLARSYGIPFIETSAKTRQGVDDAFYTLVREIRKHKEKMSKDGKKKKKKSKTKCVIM
T2 sequence (P01116 1-188 isoform P01116-2 G12S): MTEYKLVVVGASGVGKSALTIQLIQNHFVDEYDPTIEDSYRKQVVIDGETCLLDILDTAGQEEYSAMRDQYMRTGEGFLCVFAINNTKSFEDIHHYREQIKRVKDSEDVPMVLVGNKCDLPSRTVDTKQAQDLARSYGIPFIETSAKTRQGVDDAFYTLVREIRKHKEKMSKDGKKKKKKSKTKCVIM
T1 sequence (P01116 1-188 isoform P01116-2 G12D): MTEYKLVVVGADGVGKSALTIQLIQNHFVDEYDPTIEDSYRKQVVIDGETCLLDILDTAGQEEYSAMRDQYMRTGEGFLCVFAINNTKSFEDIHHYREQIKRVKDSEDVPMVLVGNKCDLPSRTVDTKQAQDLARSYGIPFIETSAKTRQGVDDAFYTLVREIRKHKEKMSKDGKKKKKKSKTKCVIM

Row | SMILES | IC50 (K-Ras G12D) | IC50 (K-Ras G12S) | IC50 (K-Ras G12V) | IC50 (K-Ras WT) | IC50 (A549 cells) | IC50 (SW620 cells) | IC50 (GP2D cells)
1 | COC1(C(=O)N2CCC(N3CCOc4c(Cl)c(-c5ccc(F)c6sc(N)c(C#N)c56)c(F)c5nc(OC[C@@]67CCCN6C[C@H](F)C7)nc3c45)C2)CC1 (stereo partly drawn) [Compound 1038, 2-amino-4-(8-chloro-10-fluoro-2-(((2R,7aS)-2-fluorotetrahydro-1H-pyrrolizin-7a(5H)-yl)methoxy)-4-(1-(1-methoxycyclopropane-1-carbonyl)pyrrolidin-3-yl)-5,6-dihydro-4H-[1,4]oxazepino[5,6,7-de]quinazolin-9-yl)-7-fluorobenzo[b]thiophene-3-carbonitrile] | < 100 nM | < 100 nM | < 100 nM | < 100 nM | < 5000 nM | < 5000 nM | < 500 nM
2 | CNC(=O)C1CCC(N2CCOc3c(Cl)c(-c4ccc(F)c5sc(N)c(C#N)c45)c(F)c4nc(OC[C@@]56CCCN5C[C@H](F)C6)nc2c34)C1 (stereo partly drawn) [Compound 633, 3-(9-(2-amino-3-cyano-7-fluorobenzo[b]thiophen-4-yl)-8-chloro-10-fluoro-2-(((2R,7aS)-2-fluorotetrahydro-1H-pyrrolizin-7a(5H)-yl)methoxy)-5,6-dihydro-4H-[1,4]oxazepino[5,6,7-de]quinazolin-4-yl)-N-methylcyclopentane-1-carboxamide] | < 100 nM | < 100 nM | < 100 nM | < 100 nM | < 5000 nM | < 5000 nM | < 500 nM
3 | CC(C)[C@H]1COc2c(Cl)c(-c3ccc(F)c4sc(N)c(C#N)c34)c(F)c3nc(OC[C@@]45CCCN4C[C@H](F)C5)nc(c23)N1CC(F)F [Compound 884, 2-amino-4-((5S)-8-chloro-4-(2,2-difluoroethyl)-10-fluoro-2-(((2R,7aS)-2-fluorotetrahydro-1H-pyrrolizin-7a(5H)-yl)methoxy)-5-isopropyl-5,6-dihydro-4H-[1,4]oxazepino[5,6,7-de]quinazolin-9-yl)-7-fluorobenzo[b]thiophene-3-carbonitrile] | < 100 nM | < 100 nM | < 100 nM | < 100 nM | < 5000 nM | < 5000 nM | < 500 nM
4 | N#Cc1c(N)sc2c(F)ccc(-c3c(Cl)c4c5c(nc(OC[C@@]67CCCN6C[C@H](F)C7)nc5c3F)N(CC3CC3(F)F)CCO4)c12 (stereo partly drawn) [Compound 850, 2-amino-4-(8-chloro-4-((2,2-difluorocyclopropyl)methyl)-10-fluoro-2-(((2R,7aS)-2-fluorotetrahydro-1H-pyrrolizin-7a(5H)-yl)methoxy)-5,6-dihydro-4H-[1,4]oxazepino[5,6,7-de]quinazolin-9-yl)-7-fluorobenzo[b]thiophene-3-carbonitrile] | < 100 nM | < 100 nM | < 100 nM | < 100 nM | < 5000 nM | < 5000 nM | < 500 nM
5 | N#Cc1c(N)sc2c(F)ccc(-c3c(Cl)c4c5c(nc(OC[C@@]67CCCN6C[C@H](F)C7)nc5c3F)N([C@H]3CCN(C=O)C3)CCO4)c12 [Compound 1095, 2-amino-4-(8-chloro-10-fluoro-2-(((2R,7aS)-2-fluorotetrahydro-1H-pyrrolizin-7a(5H)-yl)methoxy)-4-((S)-1-formylpyrrolidin-3-yl)-5,6-dihydro-4H-[1,4]oxazepino[5,6,7-de]quinazolin-9-yl)-7-fluorobenzo[b]thiophene-3-carbonitrile] | < 100 nM | < 100 nM | < 100 nM | < 100 nM | < 5000 nM | < 5000 nM | < 500 nM
6 | N#Cc1c(N)sc2c(F)ccc(-c3c(Cl)c4c5c(nc(OC[C@@]67CCCN6C[C@H](F)C7)nc5c3F)N(CC3(O)CCC3)CCO4)c12 [Compound 667, 2-amino-4-(8-chloro-10-fluoro-2-(((2R,7aS)-2-fluorotetrahydro-1H-pyrrolizin-7a(5H)-yl)methoxy)-4-((1-hydroxycyclobutyl)methyl)-5,6-dihydro-4H-[1,4]oxazepino[5,6,7-de]quinazolin-9-yl)-7-fluorobenzo[b]thiophene-3-carbonitrile] | < 100 nM | < 100 nM | < 100 nM | < 100 nM | < 5000 nM | < 5000 nM | < 500 nM
7 | N#Cc1c(N)sc2c(F)ccc(-c3c(Cl)c4c5c(nc(OC[C@@]67CCCN6C[C@H](F)C7)nc5c3F)N([C@@H]3CCN(C=O)C3)CCO4)c12 [Compound 716, 2-amino-4-(8-chloro-10-fluoro-2-(((2R,7aS)-2-fluorotetrahydro-1H-pyrrolizin-7a(5H)-yl)methoxy)-4-((R)-1-formylpyrrolidin-3-yl)-5,6-dihydro-4H-[1,4]oxazepino[5,6,7-de]quinazolin-9-yl)-7-fluorobenzo[b]thiophene-3-carbonitrile] | < 100 nM | < 100 nM | < 100 nM | < 100 nM | < 5000 nM | < 5000 nM | < 500 nM
8 | CN(CCN1CCOc2c(Cl)c(-c3ccc(F)c4sc(N)c(C#N)c34)c(F)c3nc(OC[C@@]45CCCN4C[C@H](F)C5)nc1c23)C(=O)C(F)F [Compound 1127, N-(2-(9-(2-amino-3-cyano-7-fluorobenzo[b]thiophen-4-yl)-8-chloro-10-fluoro-2-(((2R,7aS)-2-fluorotetrahydro-1H-pyrrolizin-7a(5H)-yl)methoxy)-5,6-dihydro-4H-[1,4]oxazepino[5,6,7-de]quinazolin-4-yl)ethyl)-2,2-difluoro-N-methylacetamide] | < 100 nM | < 100 nM | < 100 nM | < 100 nM | < 5000 nM | < 5000 nM | < 500 nM

More lines, main results first:

Row | IC50 (K-Ras G12D) | IC50 (K-Ras G12S) | IC50 (K-Ras G12V) | IC50 (K-Ras WT) | IC50 (A549 cells) | IC50 (SW620 cells) | SMILES | IC50 (GP2D cells)
9 | < 100 nM | < 100 nM | < 100 nM | < 100 nM | < 5000 nM | < 5000 nM | N#Cc1c(N)sc2c(F)ccc(-c3c(Cl)c4c5c(nc(OC[C@@]67CCCN6C[C@H](F)C7)nc5c3F)N(C3CCN(C(=O)C5CCO5)C3)CCO4)c12 (stereo partly drawn) [Compound 1064, 2-amino-4-(8-chloro-10-fluoro-2-(((2R,7aS)-2-fluorotetrahydro-1H-pyrrolizin-7a(5H)-yl)methoxy)-4-(1-(oxetane-2-carbonyl)pyrrolidin-3-yl)-5,6-dihydro-4H-[1,4]oxazepino[5,6,7-de]quinazolin-9-yl)-7-fluorobenzo[b]thiophene-3-carbonitrile] | < 500 nM
10 | < 100 nM | < 100 nM | < 100 nM | < 100 nM | < 5000 nM | < 5000 nM | N#Cc1c(N)sc2c(F)ccc(-c3c(Cl)c4c5c(nc(OC[C@@]67CCCN6C[C@H](F)C7)nc5c3F)N(C3CCOC3)CC(CO)O4)c12 (stereo partly drawn) [Compound 681, 2-amino-4-(8-chloro-10-fluoro-2-(((2R,7aS)-2-fluorotetrahydro-1H-pyrrolizin-7a(5H)-yl)methoxy)-6-(hydroxymethyl)-4-(tetrahydrofuran-3-yl)-5,6-dihydro-4H-[1,4]oxazepino[5,6,7-de]quinazolin-9-yl)-7-fluorobenzo[b]thiophene-3-carbonitrile] | < 500 nM
11 | < 100 nM | < 100 nM | < 100 nM | < 100 nM | < 5000 nM | < 5000 nM | N#Cc1c(N)sc2c(F)ccc(-c3c(Cl)c4c5c(nc(OC[C@@]67CCCN6C[C@H](F)C7)nc5c3F)N(C3CCN(C(=O)CC5COC5)C3)CCO4)c12 (stereo partly drawn) [Compound 1126, 2-amino-4-(8-chloro-10-fluoro-2-(((2R,7aS)-2-fluorotetrahydro-1H-pyrrolizin-7a(5H)-yl)methoxy)-4-(1-(2-(oxetan-3-yl)acetyl)pyrrolidin-3-yl)-5,6-dihydro-4H-[1,4]oxazepino[5,6,7-de]quinazolin-9-yl)-7-fluorobenzo[b]thiophene-3-carbonitrile] | < 500 nM
12 | < 100 nM | < 100 nM | < 100 nM | < 100 nM | < 5000 nM | < 5000 nM | COCCN1CCOc2c(Cl)c(-c3ccc(F)c4sc(N)c(C#N)c34)c(F)c3nc(OC[C@@]45CCCN4C[C@H](F)C5)nc1c23 [Compound 1061, 2-amino-4-(8-chloro-10-fluoro-2-(((2R,7aS)-2-fluorotetrahydro-1H-pyrrolizin-7a(5H)-yl)methoxy)-4-(2-methoxyethyl)-5,6-dihydro-4H-[1,4]oxazepino[5,6,7-de]quinazolin-9-yl)-7-fluorobenzo[b]thiophene-3-carbonitrile] | < 500 nM
